This is an account of results in paper PMC6150216, “Oleanane-Type Saponins from the Roots of Ligulariopsis shichuana and Their α-Glucosidase Inhibitory Activities” (Molecules : A Journal of Synthetic Chemistry and Natural …, 2017).

SMILES strings stand for the structures. “Also recorded” adds a separate entry of the source.

The target in one assay is yeast α-glucosidase. The experiment in a line: α-Glucosidase inhibitory activity assay. In kind it is biochemical. The settings on record: for IC50: compound concentration that inhibits α-glucosidase activity by 50%, acarbose positive control, read-out: IC50 against α-glucosidase; for α-glucosidase inhibitory activity (in words): qualitative statement. From the text: α-Glucosidase inhibitory activity was examined by the method described by Omar et al..

For a further assay, the system named is glucose-loaded rats. Details: method as in PMID 11237187. As to conditions: cited from earlier work.

Broadly, the IC50 is the midpoint of a concentration-inhibition curve. On to `COC(=O)[C@H]1O[C@@H](O[C@H]2CC[C@]3(C)[C@H]4CC=C5[C@@H]6CC(C)(C)CC[C@]6(C)[C@@H](O)C[C@@]5(C)[C@]4(C)C[C@@H](O)[C@H]3C2(C)C)[C@H](O)[C@@H](O)[C@@H]1O` [Compound 3, Ligushicoside C], for which the IC50 on yeast α-glucosidase came out at 105 ± 4.3 µM.
On to `COC(=O)[C@H]1O[C@@H](O[C@H]2CC[C@]3(C)[C@H]4CC=C5[C@@H]6CC(C)(C)CC[C@]6(CO)[C@@H](O)C[C@@]5(C)[C@]4(C)CC[C@H]3C2(C)C)[C@H](O)[C@@H](O)[C@@H]1O` [Compound 5, Ligushicoside E], for which the IC50 at yeast α-glucosidase came to 154 ± 11.2 µM.
Turning to `CC1(C)CC[C@]2(C(=O)O)CC[C@]3(C)C(=CC[C@@H]4[C@@]5(C)CC[C@H](O[C@@H]6O[C@H](C(=O)O)[C@@H](O)[C@H](O)[C@H]6O)C(C)(C)[C@@H]5CC[C@]43C)[C@@H]2C1` [Compound 7, calenduloside E], at yeast α-glucosidase, the half-inhibitory concentration (IC50) amounted to 57.6 ± 6.8 µM. Further, in the assay on glucose-loaded rats, the “effect on the incensement of serum glucose levels” value is listed as “significant effects; also recorded: strongly inhibited”.
Consider `COC(=O)[C@H]1O[C@@H](O[C@H]2CC[C@]3(C)[C@H]4CC=C5[C@@H]6CC(C)(C)CC[C@]6(CO)[C@@H](O)C[C@@]5(C)[C@]4(C)C[C@@H](O)[C@H]3C2(C)C)[C@H](O)[C@@H](O)[C@@H]1O` [Compound 4, Ligushicoside D], for which, on yeast α-glucosidase, the IC50 was 89.7 ± 5.1 µM.
Regarding `COC(=O)[C@H]1O[C@@H](O[C@H]2CC[C@]3(C)[C@H]4CC=C5[C@@H]6CC(C)(C)CC[C@]6(C(=O)O)CC[C@@]5(C)[C@]4(C)CC[C@H]3C2(C)C)[C@H](O)[C@@H](O)[C@@H]1O` [Compound 8, calenduloside E 6′-methyl ester], the IC50 at yeast α-glucosidase was found to be 134 ± 3.3 µM. Moreover, in the assay with glucose-loaded rats, the “effect on the incensement of serum glucose levels” value is reported as “significant effects”.
Consider `CC1(C)CC[C@]2(C=O)[C@@H](O)C[C@]3(C)C(=CC[C@@H]4[C@@]5(C)CC[C@H](O[C@@H]6O[C@H](C(=O)O)[C@@H](O)[C@H](O)[C@H]6O)C(C)(C)[C@@H]5CC[C@]43C)[C@@H]2C1` [Compound 1, Ligushicoside A], for which, at yeast α-glucosidase, the IC50 came out at 18.7 ± 1.7 µM and the “α-glucosidase inhibitory activity (in words)” value was “excellent inhibitory activities; also recorded: excellent inhibitory activity”.
Consider `CC1(C)CC[C@]2(CO)[C@@H](O)C[C@]3(C)C(=CC[C@@H]4[C@@]5(C)CC[C@H](O[C@@H]6O[C@H](C(=O)O)[C@@H](O)[C@H](O)[C@H]6O)C(C)(C)[C@@H]5CC[C@]43C)[C@@H]2C1` [Compound 6, longispinogenin 3-O-β-D-glucuronopyranoside], for which the IC50 at yeast α-glucosidase stood at 42.6 ± 5.9 µM.
Regarding `COC(=O)[C@H]1O[C@@H](O[C@H]2CC[C@]3(C)[C@H]4CC=C5[C@@H]6CC(C)(C)CC[C@]6(C=O)[C@@H](O)C[C@@]5(C)[C@]4(C)CC[C@H]3C2(C)C)[C@H](O)[C@@H](O)[C@@H]1O` [Compound 2, Ligushicoside B], on yeast α-glucosidase, the IC50 was 37.9 ± 3.6 µM and the “α-glucosidase inhibitory activity (in words)” value was “excellent inhibitory activities; also recorded: excellent inhibitory activity”.
